Experimental findings from PubChem BioAssay (NCI) are described below.

The structures appear in SMILES notation.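 Each compound was tested at five concentrations against cells in 96-well plates for 48 hours. Abbreviation: GI50, concentration required for 50% inhibition of growth. TGI: concentration producing complete growth inhibition.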

Some test systems named below: CAKI-1 renal; COLO 205 colon; HOP-62 NSCLC; OVCAR-4 ovarian; RPMI-8226 leukemia; RXF 393 renal; SK-MEL-28 melanoma; SNB-19 CNS; SW-620 colon; MDA-MB-231 breast.
Assay in all cases: growth of human tumour cells (NCI), 48 h

Take `COC(=O)C(/C(=N\NC(N)=S)C(=O)Nc1ccccc1[N+](=O)[O-])c1cnc2ccccc2n1` (stereo unspecified): the TGI in the assay on CAKI-1 renal, in the assay with COLO 205 colon, in the assay on HOP-62 NSCLC, in the assay with OVCAR-4 ovarian, in the assay on RPMI-8226 leukemia and with RXF 393 renal was above 100 µM throughout. Moreover, the TGI in the assay on SK-MEL-28 melanoma, in the assay on SNB-19 CNS and in the assay on SW-620 colon was above 100 µM each time.

In the case of `O=C1C2C3C=CC(C2C(=O)N1CN1CCSCC1)C1C2C(=O)N(CN4CCSCC4)C(=O)C2C31` (stereo unspecified), the TGI in the assay with CAKI-1 renal is above 100 µM; with COLO 205 colon it was 97.8 µM; in the assay with HOP-62 NSCLC it was above 100 µM; in the assay on OVCAR-4 ovarian it was above 100 µM; in the assay on RPMI-8226 leukemia it was 61.7 µM; with RXF 393 renal, above 100 µM. The TGI in the assay with SK-MEL-28 melanoma was above 100 µM; in the assay with SNB-19 CNS, above 100 µM; with SW-620 colon, above 68.1 µM. In addition, the values for the GI50 in the assay with RPMI-8226 leukemia and with SW-620 colon were 32.2 µM and 50.5 µM, respectively.

Consider `COC(=O)C(=O)C(C(=O)C(=O)Nc1cc(C)ccc1C)c1nc2ccc(C(=O)c3ccccc3)cc2[nH]c1=O` (stereo unspecified), for which the TGI in the assay on CAKI-1 renal, in the assay on COLO 205 colon, in the assay with OVCAR-4 ovarian, with RPMI-8226 leukemia, with RXF 393 renal and with SNB-19 CNS was above 100 µM each time. The compound also returned a TGI in the assay with SW-620 colon above 100 µM.

`COc1ccc(/C=C2\c3cc(OC)c(OC)c(OC)c3CC[C@@H]2O)cc1F`: the GI50 was 0.391 µM with CAKI-1 renal; 1.03 µM with COLO 205 colon; 0.245 µM in the assay with HOP-62 NSCLC; 0.958 µM in the assay with MDA-MB-231 breast; 1.1 µM with OVCAR-4 ovarian; 1.82 µM with RPMI-8226 leukemia. Also, the values for the GI50 with SK-MEL-28 melanoma, in the assay on SNB-19 CNS and in the assay on SW-620 colon were 7.54 µM, 0.855 µM and 0.246 µM, respectively. Besides, the TGI in the assay with CAKI-1 renal is above 100 µM; in the assay with COLO 205 colon, 7.59 µM; in the assay on HOP-62 NSCLC, above 100 µM; in the assay on MDA-MB-231 breast, above 100 µM; in the assay with OVCAR-4 ovarian, above 100 µM; with RPMI-8226 leukemia, above 100 µM. Moreover, the TGI in the assay on SK-MEL-28 melanoma, in the assay with SNB-19 CNS and with SW-620 colon was above 100 µM each time.

Regarding `Cc1ccc2nc(NC(=O)/C(=N\NC(=S)NN)C3C(=O)NC(=S)NC3=O)sc2c1`, the TGI with CAKI-1 renal, with COLO 205 colon, in the assay with HOP-62 NSCLC, with OVCAR-4 ovarian, with RPMI-8226 leukemia and with RXF 393 renal was above 100 µM in each case. Also, the TGI in the assay with SK-MEL-28 melanoma, with SNB-19 CNS and in the assay with SW-620 colon was above 100 µM throughout.

Regarding `C/C(=N\NC(=O)CC(=O)N(C(=O)c1ccc(Cl)cc1)c1ccc(C)cc1)c1ccccc1O`, the TGI is above 100 µM with CAKI-1 renal; above 100 µM with COLO 205 colon; above 100 µM with HOP-62 NSCLC; 13.7 µM in the assay on OVCAR-4 ovarian; above 100 µM with RPMI-8226 leukemia; above 100 µM in the assay with RXF 393 renal. Also, the TGI in the assay on SK-MEL-28 melanoma, with SNB-19 CNS and with SW-620 colon was above 100 µM throughout.

As for `CC(C)C1N2CCCCC2[C@@H]2c3[nH]c4ccccc4c3CCN12` (stereo partly specified), the TGI in the assay with CAKI-1 renal, in the assay on COLO 205 colon, with HOP-62 NSCLC, in the assay on OVCAR-4 ovarian, with RPMI-8226 leukemia and in the assay with RXF 393 renal was above 100 µM in each case. The TGI in the assay on SK-MEL-28 melanoma, in the assay with SNB-19 CNS and with SW-620 colon was above 100 µM each time.

Regarding `CCCCCC[C@H](C)NC(=O)c1ccc(Nc2nc3ccccc3c3occc23)cc1`, the GI50 was 3.97 µM in the assay with CAKI-1 renal; 3.07 µM with COLO 205 colon; 3.39 µM in the assay with HOP-62 NSCLC; 12.6 µM in the assay on MDA-MB-231 breast; 4.03 µM in the assay on RPMI-8226 leukemia; 3.88 µM with RXF 393 renal. Also, the results for the GI50 in the assay with SK-MEL-28 melanoma, in the assay with SNB-19 CNS and in the assay with SW-620 colon were 5.41 µM, 5.15 µM and 3.57 µM, respectively. Also, the TGI was 50.5 µM with CAKI-1 renal; 8.45 µM with COLO 205 colon; 12.9 µM in the assay with HOP-62 NSCLC; 51.8 µM in the assay with MDA-MB-231 breast; above 100 µM in the assay on RPMI-8226 leukemia; 13.7 µM in the assay on RXF 393 renal. The TGI in the assay on SK-MEL-28 melanoma, with SNB-19 CNS and in the assay with SW-620 colon was above 100 µM throughout.

Consider `O=c1c2c(c1=O)-c1ccccc1CN2`, for which the TGI in the assay with CAKI-1 renal, in the assay on COLO 205 colon, in the assay on HOP-62 NSCLC, with OVCAR-4 ovarian, in the assay with RPMI-8226 leukemia and in the assay on RXF 393 renal was above 100 µM throughout. The TGI with SK-MEL-28 melanoma, in the assay on SNB-19 CNS and in the assay on SW-620 colon was above 100 µM in each case.

Consider `CCOC(=O)C(C(O)c1ccc([N+](=O)[O-])cc1)P(=O)(OCC)OCC` (stereo unspecified), for which the TGI with CAKI-1 renal, with HOP-62 NSCLC, in the assay with OVCAR-4 ovarian, with RPMI-8226 leukemia, in the assay with RXF 393 renal and in the assay with SK-MEL-28 melanoma was above 100 µM in each case. Further, the TGI with SNB-19 CNS and with SW-620 colon was above 100 µM each time.

Turning to `CCN(CC)CCn1c2ccccc2c(=O)c2c(OC)ccc(OC)c21`, the TGI in the assay with CAKI-1 renal is above 100 µM; in the assay on COLO 205 colon, above 100 µM; with HOP-62 NSCLC it was above 100 µM; in the assay on OVCAR-4 ovarian, above 100 µM; with RPMI-8226 leukemia it was above 100 µM; in the assay on RXF 393 renal it was 81.5 µM. The TGI with SNB-19 CNS and with SW-620 colon was above 100 µM throughout.

As to `Cc1nccc2c3ccc(OCc4cn(-c5ccc(Cl)cc5)nn4)cc3n(CC(C)C)c12`, the GI50 was 1.51 µM in the assay on COLO 205 colon; 4.69 µM with MDA-MB-231 breast; 2.24 µM in the assay with OVCAR-4 ovarian; 1.09 µM in the assay with RPMI-8226 leukemia; 2.85 µM in the assay on RXF 393 renal; 4.14 µM in the assay on SK-MEL-28 melanoma. Besides, the GI50 with SNB-19 CNS was 4.5 µM; in the assay on SW-620 colon, 3.33 µM. Besides, the TGI in the assay with COLO 205 colon came out at 6.8 µM; in the assay on MDA-MB-231 breast it was 26.5 µM; with OVCAR-4 ovarian, 15.1 µM; in the assay on RPMI-8226 leukemia it was 3.95 µM; in the assay with RXF 393 renal, 11.8 µM; with SK-MEL-28 melanoma it was 18.2 µM. The TGI in the assay on SNB-19 CNS and in the assay with SW-620 colon was above 33.3 µM throughout.
